Measured values as given in patent US20060069132A1, “Azolecarboxamide herbicides” (priority 2004, published 2006).

What was measured:
[1] = test system: yellow nutsedge; experiment: Test C pre-/postemergence herbicide test; format: in vivo, Cyperus esculentus; conditions: for Nutsedge, Yellow plant response rating: Preemergence, 500 g ai/ha, scale 0 to 100, 0 no effect, 100 complete control
Outline: (§1)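 Preemergence: seeds planted and treated with compound in non-phytotoxic solvent with surfactant; postemergence: plants at 2 to 18 cm (1- to 4-leaf stage) sprayed likewise. Kept in greenhouse 12 to 14 days, then visually rated against controls, 0 (no effect) to 100 (complete control).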

[2] = test system: morningglory; experiment: Test A pre-/postemergence herbicide test; format: in vivo, Ipomoea spp.
Outline: (§2)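 Sandy loam soil given preemergence directed spray; plants at 2 to 10 cm, one- to two-leaf stage, sprayed to runoff postemergence, compounds in non-phytotoxic solvent with surfactant. Injury rated visually versus untreated controls after about ten greenhouse days, 0 (no effect) to 100 (complete control); dash means not tested.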

[3] = test system: giant foxtail; experiment: Test C pre-/postemergence herbicide test; format: in vivo, Setaria faberi; conditions: for Foxtail, Giant plant response rating: Preemergence, 500 g ai/ha, scale 0 to 100, 0 no effect, 100 complete control
Outline: as §1

[4] = test system: woolly cupgrass; experiment: Test C pre-/postemergence herbicide test; format: in vivo, Eriochloa villosa; conditions: for Cupgrass, Woolly plant response rating: Preemergence, 500 g ai/ha, scale 0 to 100, 0 no effect, 100 complete control
Outline: as §1

[5] = test system: morningglory; experiment: Test C pre-/postemergence herbicide test; format: in vivo, Ipomoea coccinea; set-up: key to Plant response rating, Morningglory: 0 = no effect, 100 = complete control; conditions: for Morningglory plant response rating: Preemergence, 500 g ai/ha, scale 0 to 100, 0 no effect, 100 complete control
Outline: as §1

[6] = test system: Surinam grass; experiment: Test C pre-/postemergence herbicide test; format: in vivo, Urochloa decumbens; conditions: for Surinam Grass plant response rating: Preemergence, 500 g ai/ha, scale 0 to 100, 0 no effect, 100 complete control
Outline: as §1

[7] = test system: lambsquarters; experiment: Test C pre-/postemergence herbicide test; format: in vivo, Chenopodium album; conditions: for Lambsquarters plant response rating: Preemergence, 500 g ai/ha, scale 0 to 100, 0 no effect, 100 complete control
Outline: as §1

[8] = test system: rice; experiment: Test C flooded paddy test; format: in vivo, Oryza sativa; conditions: for Plant response rating, Rice: 500 g ai/ha, visual rating after 12 to 14 days
Outline: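 Postemergence sprays applied to plants 2 to 18 cm tall (1- to 4-leaf stage); paddy species grown to 2-leaf stage under flooding. After 12 to 14 days in greenhouse, visual rating versus untreated controls on 0–100 scale (0 no effect, 100 complete control).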

[9] = test system: corn; experiment: Test C pre-/postemergence herbicide test; format: in vivo, Zea mays; conditions: for Corn plant response rating: Preemergence, 500 g ai/ha, scale 0 to 100, 0 no effect, 100 complete control
Outline: as §1

[10] = test system: velvetleaf; experiment: Test A pre-/postemergence herbicide test; format: in vivo, Abutilon theophrasti
Outline: as §2

[11] = test system: ducksalad; experiment: Test C flooded paddy test; format: in vivo, Heteranthera limosa; conditions: for Plant response rating, Ducksalad: 500 g ai/ha, visual rating after 12 to 14 days
[12] = test system: smallflower umbrella sedge; experiment: Test C flooded paddy test; format: in vivo, Cyperus difformis; conditions: for Plant response rating, Sedge, Umbrella: 500 g ai/ha, visual rating after 12 to 14 days
[13] = test system: common (oilseed) sunflower; experiment: Test C pre-/postemergence herbicide test; format: in vivo, Helianthus annuus; conditions: for Sunflower plant response rating: Preemergence, 500 g ai/ha, scale 0 to 100, 0 no effect, 100 complete control
Outline: as §1

[14] = 62 g ai/ha, preemergence, scale 0 to 100
[15] = 125 g ai/ha, scale 0 (no effect) to 100 (complete control), visual, 12 to 14 days, preemergence
[16] = 250 g ai/ha, scale 0-100, preemergence
[17] = Postemergence, 500 g ai/ha, 0 to 100 scale, 0 no effect, 100 complete control
[18] = Postemergence, 2000 g ai/ha, 0 to 100 scale, 0 no effect, 100 complete control
[19] = Preemergence, 2000 g ai/ha, visual rating, 0 to 100 scale (0 no effect, 100 complete control)
[20] = preemergence, 500 g ai/ha, visual injury, 0 to 100 scale (0 no effect, 100 complete control)
[21] = 62 g ai/ha, scale 0 to 100 (0 no effect, 100 complete control)
[22] = 125 g ai/ha, scale 0 to 100 (0 no effect, 100 complete control)
[23] = 250 g ai/ha, scale of 0 to 100, 0 is no effect, 100 is complete control
[24] = scale 0 to 100 (0 no effect, 100 complete control)
[25] = Preemergence, 500 g ai/ha, visual rating, 0 to 100 scale (0 no effect, 100 complete control)
[26] = 250 g ai/ha, scale 0 to 100 (0 no effect, 100 complete control), visual, 12 to 14 days, preemergence
[27] = 125 g ai/ha, scale of 0 to 100, 0 is no effect, 100 is complete control

SMILES: C=CCNC(=O)c1cccc(NC(=O)c2sc(C(C)(C)C)nc2CC)c1 [Compound 207]
- Plant response rating, Nutsedge, Yellow [1, 14]: 0
- Plant response rating, Nutsedge, Yellow [1, 15]: 0
- Plant response rating, Nutsedge, Yellow [1, 16]: 20
- Nutsedge, Yellow plant response rating [1]: 20
- Morningglory plant response rating [2, 17]: 20
- Plant response rating, Morningglory [2, 18]: 15
- Morningglory plant response rating [2, 19]: 85
- Morningglory plant response rating [2, 20]: 35
- Plant response rating, Foxtail, Giant [3, 14]: 0
- Plant response rating, Foxtail, Giant [3, 15]: 0
- Plant response rating, Foxtail, Giant [3, 16]: 10
- Foxtail, Giant plant response rating [3]: 100
- Plant response rating, Cupgrass, Woolly [4, 14]: 0
- Plant response rating, Cupgrass, Woolly [4, 15]: 0
- Plant response rating, Cupgrass, Woolly [4, 16]: 5
- Cupgrass, Woolly plant response rating [4]: 40
- Plant response rating, Morningglory [5, 14]: 0
- Plant response rating, Morningglory [5, 15]: 0
- Plant response rating, Morningglory [5, 16]: 0
- Morningglory plant response rating [5]: 0
- Plant response rating, Surinam Grass [6, 14]: 0
- Plant response rating, Surinam Grass [6, 15]: 0
- Plant response rating, Surinam Grass [6, 16]: 0
- Surinam Grass plant response rating [6]: 10
- Plant response rating, Lambsquarters [7, 14]: 90
- Plant response rating, Lambsquarters [7, 15]: 95
- Plant response rating, Lambsquarters [7, 16]: 95
- Lambsquarters plant response rating [7]: 95
- Rice plant response rating [8, 21]: 30
- Rice plant response rating [8, 22]: 45
- Rice plant response rating [8, 23]: 50
- Plant response rating, Rice [8, 24]: 60
- Plant response rating, Corn [9, 14]: 0
- Plant response rating, Corn [9, 15]: 0
- Plant response rating, Corn [9, 16]: 5
- Corn plant response rating [9]: 20
- Velvetleaf plant response rating [10, 17]: 20
- Plant response rating, Velvetleaf [10, 18]: 25
- Velvetleaf plant response rating [10, 19]: 100
- Velvetleaf plant response rating [10, 20]: 30
- Ducksalad plant response rating [11, 21]: 55
- Ducksalad plant response rating [11, 22]: 80
- Ducksalad plant response rating [11, 23]: 80
- Plant response rating, Ducksalad [11, 24]: 85
- Sedge, Umbrella plant response rating [12, 21]: 70
- Sedge, Umbrella plant response rating [12, 22]: 75
- Sedge, Umbrella plant response rating [12, 23]: 75
- Plant response rating, Sedge, Umbrella [12, 24]: 90
- Plant response rating, Sunflower [13, 14]: 0
- Plant response rating, Sunflower [13, 15]: 0
- Plant response rating, Sunflower [13, 16]: 0
- Sunflower plant response rating [13]: 0

SMILES: CCCN1CCc2c(NC(=O)c3cc(C(C)(C)C)nn3CC)cccc2C1=O [Compound 65]
- Plant response rating (0 = no effect, 100 = complete control), Nutsedge, Yellow ([1]; 62 g ai/ha, preemergence): 0
- Plant response rating, Nutsedge, Yellow [1, 15]: 0
- Nutsedge, Yellow plant response rating [1]: 0
- Plant response rating, Morningglory [2, 17]: 10
- Plant response rating, Morningglory [2, 18]: 10
- Morningglory plant response rating [2, 25]: 5
- Morningglory plant response rating ([2]; Preemergence, 2000 g ai/ha, 0 to 100 scale, 0 no effect, 100 complete control): 5
- Plant response rating (0 = no effect, 100 = complete control), Foxtail, Giant ([3]; 62 g ai/ha, preemergence): 0
- Plant response rating, Foxtail, Giant [3, 15]: 0
- Plant response rating, Foxtail, Giant [3, 26]: 20
- Foxtail, Giant plant response rating [3]: 60
- Plant response rating (0 = no effect, 100 = complete control), Cupgrass, Woolly ([4]; 62 g ai/ha, preemergence): 0
- Plant response rating, Cupgrass, Woolly [4, 15]: 0
- Plant response rating, Cupgrass, Woolly [4, 26]: 10
- Cupgrass, Woolly plant response rating [4]: 10
- Plant response rating (0 = no effect, 100 = complete control), Morningglory ([5]; 62 g ai/ha, preemergence): 0
- Plant response rating, Morningglory [5, 15]: 0
- Morningglory plant response rating [5]: 10
- Plant response rating (0 = no effect, 100 = complete control), Surinam Grass ([6]; 62 g ai/ha, preemergence): 0
- Plant response rating, Surinam Grass [6, 15]: 0
- Surinam Grass plant response rating [6]: 50
- Plant response rating (0 = no effect, 100 = complete control), Lambsquarters ([7]; 62 g ai/ha, preemergence): 20
- Plant response rating, Lambsquarters [7, 15]: 95
- Lambsquarters plant response rating [7]: 100
- Rice plant response rating [8, 21]: 0
- Rice plant response rating [8, 27]: 0
- Rice plant response rating [8, 23]: 25
- Plant response rating, Rice [8, 24]: 30
- Plant response rating (0 = no effect, 100 = complete control), Corn ([9]; 62 g ai/ha, preemergence): 0
- Plant response rating, Corn [9, 15]: 0
- Plant response rating, Corn [9, 26]: 10
- Corn plant response rating [9]: 20
- Plant response rating, Velvetleaf [10, 18]: 25
- Velvetleaf plant response rating [10, 25]: 10
- Velvetleaf plant response rating [10, 19]: 30
- Ducksalad plant response rating [11, 21]: 15
- Ducksalad plant response rating [11, 27]: 45
- Ducksalad plant response rating [11, 23]: 75
- Plant response rating, Ducksalad [11, 24]: 85
- Sedge, Umbrella plant response rating [12, 21]: 0
- Sedge, Umbrella plant response rating [12, 27]: 20
- Sedge, Umbrella plant response rating [12, 23]: 75
- Plant response rating, Sedge, Umbrella [12, 24]: 80
- Plant response rating (0 = no effect, 100 = complete control), Sunflower ([13]; 62 g ai/ha, preemergence): 0
- Plant response rating, Sunflower [13, 15]: 0
- Sunflower plant response rating [13]: 0
